Results taken from patent US5348941A, “Stabilizers for fibroblast growth factors” (Merck & Co., Inc., priority 1992, dated 1994).

Tests used:
[1] = biological target: T1, aFGF (Homo sapiens, UniProt P05230); test: Thermal denaturation (Tm) of aFGF by fluorescence spectroscopy; format: biochemical; details: for molar excess of ligand to aFGF required for 50% stabilization: FIG. 9; for Tm maximum of aFGF, fluorescence: saturating ligand, 100 μg/ml aFGF
T1 construct: The recombinant derived, 140 amino add form is the preferred form of aFGF; N-terminal methionine (MetHaFGF); made in house; host or cells: microbial cells (preferred embodiment)
T1 sequence (P05230 16-155 limits assumed): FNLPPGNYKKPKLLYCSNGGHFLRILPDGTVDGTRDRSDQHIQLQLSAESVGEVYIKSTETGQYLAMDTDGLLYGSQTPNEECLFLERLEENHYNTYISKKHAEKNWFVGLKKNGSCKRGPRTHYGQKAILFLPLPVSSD
Procedure: Fluorescence spectra are obtained with a Spex Fluorolog-2 spectrofiuorometer using a 1 mm pathlength cuvette. Band passes from 1-2 nm are employed with sample absorptivities maintained below 0.1 at 280 nm. The temperature is controlled either manually or automatically as described above. Reproducibility of thermal denaturation temperatures (Tm) is ± 2° C.
To more directly ascertain the effect of heparin on aFGF stability, the temperature-induced denaturation of aFGF as a function of heparin concentration was monitored by fluorescence spectroscopy. Fluorescence spectra were obtained with a Spex Fluorolog-2 spectrofiuorometer using a 1 mm pathlength cuvette. Band passes from 1-2 nm were employed with sample absorptivities maintained below 0.1 at 280 nm. The temperature was controlled either manually or automatically as described above. Reproducibility of thermal denaturation temperatures (Tm) was ±2° C. […] Experiments were carried out at 100 μg/ml protein (6.3 μM) in a PBS buffer at pH 7.2. Curve drawn through data points for clarity only.
Studies of the stabilization of aFGF by heparin are difficult to interpret because of the inherent heterogeneity of heparin preparations, Lane and Lindahl, Eds. Heparin, Chemical and Biological Properties, Clinical Applications, Edward Arnold, London (1989); Jackson, et al., Physiol. Rev. 71: 481-539 (1991). In order to better understand the polyanionic stabilization of aFGF, a series of well-defined fragments of heparin were examined for their ability to stabilize aFGF against thermal denaturation. These enzymatically prepared and purified fragments varied in size from a disaccharide to a decasaccharide. Each fragment was incubated with aFGF at a 1:1 weight ratio in a PBS buffer. The sample was then stressed by temperature and structural changes in aFGF were monitored by both circular dichroism and fluorescence spectroscopy. […] All samples contained 100 μg/ml aFGF (6.3 μM)in a PBS buffer (pH 7.2) with 100 μg/ml of each heparin fragment.
Since these fragments of heparin have a well-defined molecular weight, the molar ratio of aFGF to ligand during these thermal denaturation experiments can be calculated. The Tm of aFGF as a function of the molar concentration of the hexasaccharide was measured by fluorescence spectroscopy. Fluorescence spectra were obtained with a Spex Fluorolog-2 spectrofiuorometer using a 1mm pathlength cuvette. Band passes from 1-2 nm were employed with sample absorptivities maintained below 0.1 at 280 nm. The temperature was controlled either manually or automatically as described above. Reproducibility of thermal denaturation temperatures (Tm) was ±2° C.
Analogous to the heparin experiments illustrated in Example 1 (FIG. 3), aFGF thermal stability was monitored by fluorescence spectroscopy as a function of concentration for several other of the polyanions. […] All samples contained 100 μg/ml of aFGF (6.3 μM) in a PBS buffer at pH 7.2.

[2] = system: genetically diabetic C57GBL/Ks- db+/db^+ female mice; test: In vivo wound healing model (single 2 cm^2 full thickness wound); parameters: species or system mouse; details: with aFGF
Description: The in vivo animal wound healing model employs genetically diabetic c57GBL/Ks- db+/db+ female mice. The assay follows that described by Marsella et al., Wounds: A Compendium of Clinical Research and Practice, 2, (4) July/August 1990, p. 135-147, except that a single 2 cm^2 full thickness wound is used instead of the two 6 mm biopsy wounds described by Marsella. Another difference is that the wounds are covered with a polyurethane dressing. Addic FGF is applied to wounds on days 0, 3 and 7. Matching placebo formulations are used in a second group of animals. Dressings are changed every three to four days, at which time wound perimeters are traced for assessment of healing. Comparison of healing rate va. a placebo control is made and evaluated for statistical significance at the 90% healed stage.
Human aFGF as described above was combined with various stabilizers to evaluate wound healing activity of the stabilized aFGF. The in vivo animal wound healing model employs genetically diabetic C57GBL/Ks- db+/db^+ female mice (Jackson Laboratory). The assay follows that described by Marsella et. al., Wounds: A Compendium of Clinical Research and Practice, 2, (4) July/August 1990, p. […] Comparison of healing rate vs. a placebo control is made and evaluated for statistical significance at the 90% healed stage. […]

[3] = system: BALB/c 3T3 A31 fibroblasts; test: Fibroblast mitogenic assay ([3H]-thymidine incorporation into DNA); format: cell-based; details: presence of heparin
[4] = system: plasma; test: Anticoagulant activity: clotting time (PT / aPTT assay) relative to heparin; format: biochemical; details: equal weight of heparin, no aFGF present
Procedure: Clotting times are monitored by either a one-stage plasma prothrombin time assay (PT assay) or an activated partial thromboplastin time assay (aPTT) using an automated optical detection system (coag-a-Mate®-XC) by General Diagnostics. Clotting times are measured in the presence of varying amounts of heparin (0-50 μg heparin/ml plasma) to generate a standard curve and dotting times of other compounds (at equal wt. amounts) are obtained relative to these standardized values.
^(c) Anticoagulant activity is expressed as a fraction of activity
observed with an equal weight of heparin (+ less than 1/10; ++ 1/10 to
1/2; +++ heparin). No aFGF is present during these measurements.
The anticoagulant properties of heparin are well established, so it was of interest to determine the relative anticoagulant properties of the ligands of this study. The anticoagulant effect of these molecules was measured using a dotting time assay (see methods). Clotting times were monitored by either a one-stage plasma prothrombin time assay (PT assay) or an activated partial thromboplastin time assay (aPTT) using an automated optical detection system (coag-a-Mate*-XC) by General Diagnostics. […]

Anticoagulant Activity of Ligand (% Heparin by Wt) [4]	thermal melting temperature (Tm) of aFGF, fluorescence ([1]; 1/3X ligand by weight, PBS pH 7.2)	thermal melting temperature (Tm) of aFGF, fluorescence ([1]; 3X ligand by weight, PBS pH 7.2)	concentration of heparin necessary to obtain one-half the Tm maximum ([1]; fluorescence, PBS pH 7.2)	Molecule	molar excess of ligand to aFGF required for 50% stabilization ([1]; fluorescence)	Tm maximum of aFGF, fluorescence ([1]; PBS pH 7.2)	wound healing efficacy [2]	mitogenic activity of aFGF [3]
				O=P(O)(O)O[C@H]1[C@H](OP(=O)(O)O)[C@@H](OP(=O)(O)O)[C@H](OP(=O)(O)O)[C@@H](OP(=O)(O)O)[C@H]1OP(=O)(O)O [Inositol hexaphosphate, inositol hexaphosphate]	~2	60 °C		
				O=S(=O)(O)OC1C(OS(=O)(=O)O)C(OS(=O)(=O)O)C(OS(=O)(=O)O)C(OS(=O)(=O)O)C1OS(=O)(=O)O (stereo not shown) [Inositol hexasulfate, inositol hexasulfate]	~3.5	53 °C	as efficacious as heparin in stimulating	
				O=P(O)(O)OP(=O)(O)OP(=O)(O)OP(=O)(O)O [Tetrapolyphosphate]	approximately 6	50 °C		showed activity when assayed in the presence of heparin
+ ++	59 °C	61 °C	0.1 X (by weight)	heparin [reference compound]		61 °C		
				sulfated β-cyclodextrin	~1.5	56 °C	as efficacious as heparin in stimulating	
